# Reference: PMC7949159, “Optimized binding of substituted quinoline ALLINIs within the HIV-1 integrase oligomer” (The Journal of Biological Chemistry, 2021)
# Like-named read-outs stand apart in the source and are kept apart here.
# Legend:
# [1] = tested on: noninfected cells; assay: CyQUANT XTT Cell Viability cytotoxicity assay; assay type: cell-based
# [2] = biological target: T1, HIV-1 IN (full-length, His-tagged and FLAG-tagged) (Human immunodeficiency virus type 1 group M subtype B, UniProt P12497); assay: HTRF-based IN multimerization assay; assay type: biochemical; settings: average with SD of three independent experiments, read-out: In vitro IN multimerization EC50
# T1 construct: recombinant proteins 6xHis-tagged and FLAG-tagged full-length INs were expressed in E. coli; made in house; host or cells: E. coli
# Procedure: For biochemical studies, recombinant proteins 6xHis-tagged and FLAG-tagged full-length INs were expressed in E. coli and purified by column chromatography as previously described ([39]). The HTRF-based assay used to monitor inhibitor-induced aberrant multimerization of IN was performed as previously reported ([15], [19]). Briefly, two separate preparations of His-tagged and FLAG-tagged IN proteins were mixed in presence of increasing concentration of the test compounds and incubated for 2.5 h at room temperature. Anti-His6-XL665 and anti-FLAG-EuCryptate antibodies (Cisbio, Inc) were then added to the reaction and incubated at room temperature for 3 h.
# [3] = tested on: HIV-1
# Procedure: For early stage experiments, viral infectivity of target cells was measured in the presence of increasing concentrations of inhibitors. For late stage, producer cells were transfected in the presence of increasing concentrations of inhibitors, cell-free virions were harvested at 48 h, and the amounts of viral particles produced were measured by p24 concentration essay. Subsequently, the infectivity of these progeny virions was examined without any additional inhibitor being added to the target cells. […] For full viral cycle experiments, the same inhibitor concentrations were added in the producer cells and the target cells ([31]).
# The EC50 values were determined in single replication cycle as described previously ([17]). […] The virus supernatants were collected 24 h after drug treatment, and p24 concentrations were determined by HIV-1 Gag p24 ELISA (ZeptoMetrix) following manufacturer’s protocol. The target cells were then infected with HIV-1 virions equivalent to 4 ng of HIV-1 p24, in the absence or presence of indicated concentrations of drugs. To measure EC50 values during the early replication stage, DMSO or the inhibitor was added to the target cells 60 min before infection. The cells were cultured for 48 h, and the cell extracts were prepared using reporter lysis buffer (Promega). Luciferase activity was determined using a commercially available kit (Promega). The cytotoxicity assays were performed on noninfected cells using the commercially available CyQUANT XTT Cell Viability Assay (Invitrogen, Inc) by following the manufacturer protocol. The dose–response curves were fitted with a sigmoidal dose–response equation with Hill slope to determine the compound IC50 and CC50 using Origin software (v9.7).
# [4] = biological target: T2, HIV-1 IN-CTD / full-length IN complex (Human immunodeficiency virus type 1 group M subtype B, UniProt P12497); assay: HTRF-based CTD binding assay (His-tagged CTD-IN with FLAG-tagged full-length IN); assay type: biochemical; settings: 200 nM of ALLINI
# T2 construct: His-tagged CTD-IN and FLAG-tagged full-length IN proteins were mixed; made in house; host or cells: E. coli (stated for the full-length INs)
# Description: To detect in isolation the specific contribution of the IN-CTD to the ALLINI-induced IN multimer complex formation, we have modified our published HTRF-based assay (Fig. 3, A and B). In this new analytical assay, anti-His6-XL665 and anti-FLAG-EuCryptate antibodies allow the detection of fluorescence energy transfer only when FLAG-tagged full-length IN protein tightly interacts with a His-tagged IN-CTD construct. Mixing of the proteins and without compound addition generated a small HTRF signal (Fig. 3C, dimethyl sulfoxide [DMSO]) indicating a weak interaction between the full-length IN and the IN-CTD construct. Strikingly, the addition of ALLINI to the assay promoted a significant increase of HTRF signals proportional to the IN multimerization properties of the compound.
# Figure 3 C-terminal domain (CTD) contribution to the ALLINI-induced IN multimer formation.A, schematic of the standard HTRF-based IN multimerization assay. […] C, HTRF signal intensities recorded after the addition of 200 nM of ALLINI to a mixture of Flag tagged full-length IN and His-tagged CTD domain proteins as described in the Methods section. ALLINI, allosteric IN inhibitors; HTRF, homogeneous time resolved fluorescence; IN, integrase.
# The CTD-IN protein was generated and purified using a published method ([40]). […] The HTRF binding signal between proteins was recorded using a PerkinElmer EnSpire multimode plate reader.
# [5] = tested on: HIV-1 virions (viral core density); assay: Sucrose density gradient fractionation of detergent-lysed virions (p24 distribution); assay type: cell-based; settings: 1 μM during viral production, versus DMSO; fractions 16–22
# Description: We and others have previously observed how ALLINIs interfere with proper virus particle maturation and yield noninfectious particles with eccentrically positioned RNPs. This mislocalization of the RNP to a position located between the low density empty capsid (CA) core and the particle membrane in mature virions has been observed using electron microscopy ([17], [31], [32]). The buoyant sucrose gradient technique that measure the relative density of the viral core of mature virions has also been validated as an effective approach to characterize this mislocalization of the RNP ([17], [33], [34]). […] The CA core density was then detected by measuring the HIV-1 CA (p24) content of each sucrose fraction.
# For sucrose density gradient fractionation ([17], [33], [34]), cell-free virions produced from HEK293T cells transfected with pNL4-3 in the absence or presence of indicated concentration of ALLINI were concentrated by ultracentrifugation over a 25% sucrose cushion, pelleted virions were lysed with 0.5% Triton X-100 and were ultracentrifuged through a 20% to 70% (wt/vol) linear sucrose density gradient at 28,500 rpm for 16 h at 4C in SW40 rotor (Beckman). […] The relative distribution of HIV-1 capsid was determined by quantifying the Western blot p24 signal. […]
Compound,CC50 [1] [nM],EC50 [2] [nM],PSI (phase specificity index) [3],IC50 ([3]; read-out: Early IC50) [nM],IC50 ([3]; read-out: Full IC50) [nM],IC50 ([3]; read-out: Late IC50) [nM],Fold improvement of overall antiviral IC50 [3],Fold increase of PSI [3] [fold],"HTRF signal intensity, CTD / full-length IN complex [4]",Effect on HIV-1 capsid (p24) distribution in sucrose density gradient fractions [5]
Cc1nc2ccccc2c(-c2ccc3c(c2)OCCO3)c1C(OC(C)(C)C)C(=O)O (stereo not shown) [NGJ-9002],> 100000,110 ± 10,64,42000 ± 3000,830 ± 50,660 ± 30,–,–,–,–
COc1ccccc1-c1ccc2c(-c3ccc4c(c3)OCCO4)c(C(OC(C)(C)C)C(=O)O)c(C)nc2c1 (stereo not shown) [JDH-2110],> 100000,40 ± 10,465,9300 ± 500,30 ± 10,20 ± 10,about 30 fold,7,higher HTRF than NGJ9002,reduction of CA signal in high-density fractions
